Experimental findings from patent US6436984B1, “Melatonin derivatives and medicine containing same” (Centre National de la Recherche Scientifique (CNRS), priority 1998, dated 2002) are described below.

Usually IC50 stands for the concentration that gives 50% inhibition.

The assay has as its system P 815 line. Description: cell proliferation of the P 815 line (tritiated thymidine incorporation). The class given is cell-based. To be noted: P 815 cells, 7 hours incubation in RPMI medium with phenol red, tritiated thymidine added after 3 hours, radioactivity associated with the DNA. The protocol: The biological activity of the derivative of formula I was compared with dipropylenetriamine NONOate (A), melatonin (B) and a dipropylenetriamine NONOate and melatonin (1/2) mixture (C) on the cell preparation of the cell proliferation of the P 815 line.
The cells are incubated with the products in RPMI medium with phenol red for 7 hours. Tritiated thymidine is added after incubating for 3 hours.
The results are shown on the curve in the single appended FIGURE, where the concentration of product (μM) is carried on the abscissa and the radioactivity associated with the DNA (cpm) is carried on the ordinate.
(Uptake of a labelled nucleoside into DNA is a usual measure of proliferation.)

Each structure is given as a SMILES string.

Regarding `NCCCN(CCCN)/[N+]([O-])=N/O` [dipropylenetriamine NONOate (A), dipropylenetriamine NONOate], the IC50 is 150 µM.

With `COc1ccc2c(c1)c(CCNC(C)=O)cn2N=O` [compound of formula I, N1-nitrosomelatonin], the IC50 (Mus musculus, P815) stood at 280 µM.
